Experimental data taken from patent US6441195B1, “Substituted sulphonylamino(thio) carbonyl compounds” (Bayer Aktiengesellschaft, priority 1995, dated 2002).

Legend:
Assay type in all cases: in vivo
[1] = tested on: Soya beans; test: Pre-emergence test/Greenhouse, Soya beans; conditions: in vivo
Method in brief: (§1)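 Pre-emergence soil drench ~24 h after sowing; compound in solvent/emulsifier diluted with water, constant water per area, dose defined by rate per unit area. Read-out at 3 wk: % damage vs untreated control, 0% = no action.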

[2] = tested on: Gallium; test: Post-emergence test/greenhouse, Gallium; conditions: greenhouse, after three weeks
Method: (§2) Solvent: 5 parts by weight of acetone
(§3) Emulsifier: 1 part by weight of alkylaryl polyglycol ether
(§4) To produce a suitable preparation of active compound, 1 part by weight of active compound is mixed with the stated amount of solvent, the stated amount of emulsifier is added and the concentrate is diluted with water to the desired concentration.
(§5) Test plants which have a height of 5-15 cm are sprayed with the preparation of the active compound in such a way as to apply the particular amounts of active compound desired per unit area. The concentration of the spray liquor is chosen so that the particular amounts of active compound desired are applied in 2000 l of water/ha.
(§6) After three weeks, the degree of damage to the plants is rated in % damage in comparison to the development of the untreated control.
(§7) 0%=no action (like untreated control)

[3] = tested on: Matricaria; test: Post-emergence test/greenhouse, Matricaria; conditions: greenhouse, after three weeks
Method: as §2, §3, §4, §5, §6, §7

[4] = tested on: Sorghum; test: Pre-emergence test/Greenhouse, Sorghum; conditions: after three weeks
Method in brief: as §1

[5] = tested on: Echinochloa; test: Post-emergence test/greenhouse, Echinochloa; conditions: greenhouse, after three weeks
Method: as §2, §3, §4, §5, §6, §7

[6] = tested on: weeds; test: Post-emergence test (greenhouse), activity against weeds; conditions: in words
Method: as §2, §3, §4, §5, §6, §7

[7] = tested on: Ambrosia; test: Pre-emergence test/Greenhouse, Ambrosia; conditions: after three weeks
Method in brief: as §1

[8] = tested on: Maize; test: Pre-emergence test/Greenhouse, Maize; conditions: in vivo
Method in brief: as §1

[9] = tested on: Lolium; test: Post-emergence test/greenhouse, Lolium; conditions: greenhouse, after three weeks
Method: as §2, §3, §4, §5, §6, §7

[10] = tested on: Solanum; test: Pre-emergence test/Greenhouse, Solanum; conditions: after three weeks
Method in brief: as §1

[11] = tested on: Stellaria; test: Post-emergence test/greenhouse, Stellaria; conditions: greenhouse, after three weeks
Method: as §2, §3, §4, §5, §6, §7

[12] = tested on: Poa; test: Pre-emergence test/Greenhouse, Poa; conditions: after three weeks
Method in brief: as §1

[13] = tested on: Matricaria; test: Pre-emergence test/Greenhouse, Matricaria; conditions: after three weeks
Method in brief: as §1

[14] = tested on: Amaranthus; test: Post-emergence test/greenhouse, Amaranthus; conditions: greenhouse, after three weeks
Method: as §2, §3, §4, §5, §6, §7

[15] = tested on: Digitaria; test: Post-emergence test/greenhouse, Digitaria; conditions: greenhouse, after three weeks
Method: as §2, §3, §4, §5, §6, §7

[16] = tested on: Lolium; test: Pre-emergence test/Greenhouse, Lolium; conditions: after three weeks
Method in brief: as §1

[17] = tested on: weeds; test: Pre-emergence test (greenhouse), activity against weeds; conditions: in words
Method in brief: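 Three weeks after treatment, % damage relative to untreated plants is scored, 0% meaning no effect. Seeds in normal soil received, roughly one day post-sowing, an aqueous dilution of an acetone/emulsifier concentrate, with the rate per unit area, not concentration, being the relevant dose.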

[18] = tested on: Sorghum; test: Post-emergence test/greenhouse, Sorghum; conditions: greenhouse, after three weeks
Method: as §2, §3, §4, §5, §6, §7

SMILES | degree of damage to the plants (% damage vs untreated control), Soya beans [1] [%] | degree of damage, Gallium ([2]; 60 g of ai./ha) [%] | degree of damage, Matricaria ([3]; 60 g of ai./ha) [%] | degree of damage, Echinochloa ([5]; 60 g of ai./ha) [%] | activity against weeds [6] | degree of damage to the plants (% damage vs untreated control), Maize [8] [%] | degree of damage, Lolium ([9]; 60 g of ai./ha) [%] | degree of damage, Stellaria ([11]; 60 g of ai./ha) [%] | degree of damage, Amaranthus ([14]; 60 g of ai./ha) [%] | degree of damage, Digitaria ([15]; 60 g of ai./ha) [%] | activity against weeds [17] | degree of damage, Sorghum ([18]; 60 g of ai./ha) [%] | degree of damage, Gallium ([2]; 250 g of ai./ha) [%] | degree of damage, Matricaria ([3]; 250 g of ai./ha) [%] | degree of damage, Echinochloa ([5]; 250 g of ai./ha) [%] | degree of damage, Stellaria ([11]; 250 g of ai./ha) [%] | degree of damage, Amaranthus ([14]; 250 g of ai./ha) [%] | degree of damage, Digitaria ([15]; 250 g of ai./ha) [%] | degree of damage, Sorghum ([18]; 250 g of ai./ha) [%] | other results
COC(=O)c1cccc(C)c1S(=O)(=O)NC(=O)n1nc(OC)n(C2CC2)c1=O [Example 164] | 0 | 90 | 100 | 80 | very strong activity against weeds | 20 | 70 | 95 | 100 | 60 | very strong activity against weeds | 95 |  |  |  |  |  |  |  | degree of damage to the plants (% damage vs untreated control), Sorghum ([4]; 8 g of ai./ha): 90%; degree of damage to the plants (% damage vs untreated control), Ambrosia ([7]; 8 g of ai./ha): 100%; degree of damage to the plants (% damage vs untreated control), Solanum ([10]; 8 g of ai./ha): 95%; degree of damage to the plants (% damage vs untreated control), Poa ([12]; 8 g of ai./ha): 95%; degree of damage to the plants (% damage vs untreated control), Matricaria ([13]; 8 g of ai./ha): 70%; degree of damage to the plants (% damage vs untreated control), Lolium ([16]; 8 g of ai./ha): 95%
COC(=O)c1cccc(C)c1S(=O)(=O)NC(=O)n1nc(OC)n(C)c1=O [Example 162] | 0 |  | 60 | 80 | very strong activity against weeds |  | 90 | 90 |  | 70 | very strong activity against weeds | 80 |  |  |  |  |  |  |  | degree of damage to the plants (% damage vs untreated control), Sorghum ([4]; 60 g of ai./ha): 90%; degree of damage to the plants (% damage vs untreated control), Ambrosia ([7]; 60 g of ai./ha): 80%; degree of damage to the plants (% damage vs untreated control), Solanum ([10]; 60 g of ai./ha): 95%; degree of damage to the plants (% damage vs untreated control), Poa ([12]; 60 g of ai./ha): 95%; degree of damage to the plants (% damage vs untreated control), Matricaria ([13]; 60 g of ai./ha): 95%; degree of damage to the plants (% damage vs untreated control), Lolium ([16]; 60 g of ai./ha): 95%
CCCOc1nn(C(=O)NS(=O)(=O)c2c(C)cccc2C(=O)OC)c(=O)n1C [Example 140] | 10 |  |  |  | very strong activity against weeds |  |  |  |  |  | very strong activity against weeds |  | 95 | 90 | 90 | 70 | 100 | 95 | 95 | degree of damage to the plants (% damage vs untreated control), Sorghum ([4]; 30 g of ai./ha): 95%; degree of damage to the plants (% damage vs untreated control), Ambrosia ([7]; 30 g of ai./ha): 80%; degree of damage to the plants (% damage vs untreated control), Solanum ([10]; 30 g of ai./ha): 95%; degree of damage to the plants (% damage vs untreated control), Poa ([12]; 30 g of ai./ha): 95%; degree of damage to the plants (% damage vs untreated control), Matricaria ([13]; 30 g of ai./ha): 80%
COC(=O)c1cccc(C)c1S(=O)(=O)NC(=O)n1nc(OC(C)C)n(C2CC2)c1=O [Example 166] |  | 95 | 100 | 70 | very strong activity against weeds | 40 | 50 | 95 | 95 | 70 | very strong activity against weeds | 90 |  |  |  |  |  |  |  | degree of damage to the plants (% damage vs untreated control), Sorghum ([4]; 15 g of ai./ha): 70%; degree of damage to the plants (% damage vs untreated control), Ambrosia ([7]; 15 g of ai./ha): 80%; degree of damage to the plants (% damage vs untreated control), Solanum ([10]; 15 g of ai./ha): 90%; degree of damage to the plants (% damage vs untreated control), Poa ([12]; 15 g of ai./ha): 90%; degree of damage to the plants (% damage vs untreated control), Matricaria ([13]; 15 g of ai./ha): 95%; degree of damage to the plants (% damage vs untreated control), Lolium ([16]; 15 g of ai./ha): 90%
CCCOc1nn(C(=O)[N-]S(=O)(=O)c2c(C)cccc2C(=O)OC)c(=O)n1C.[Na+] [Example 144] |  |  |  |  | very strong activity against weeds |  |  |  |  |  | very strong activity against weeds |  | 95 | 70 | 95 | 95 | 100 | 95 | 95 | degree of damage to the plants (% damage vs untreated control), Sorghum ([4]; 125 g of ai./ha): 95%; degree of damage to the plants (% damage vs untreated control), Ambrosia ([7]; 125 g of ai./ha): 80%; degree of damage, Lolium ([9]; 250 g of ai./ha): 70%; degree of damage to the plants (% damage vs untreated control), Solanum ([10]; 125 g of ai./ha): 95%; degree of damage to the plants (% damage vs untreated control), Poa ([12]; 125 g of ai./ha): 90%; degree of damage to the plants (% damage vs untreated control), Matricaria ([13]; 125 g of ai./ha): 95%; degree of damage to the plants (% damage vs untreated control), Lolium ([16]; 125 g of ai./ha): 90%
